Like-named read-outs stand apart in the source and are kept apart here. One block for each compound: values may come before it.
What was measured:
hERG potassium channel = hERG potassium channel (Homo sapiens (Human), UniProt Q12809); test: in vitro
[1] = target: T1, hERG (human ether-a-go-go related gene) potassium channel (Homo sapiens (Human), UniProt Q12809); details: 5 min
[2] = target: T1, hERG (human ether-a-go-go related gene) potassium channel; test: hERG potassium channel current, automated patch clamp (PatchXpress 7000A);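 also: Four-point series of 0.3, 3, 10 and 30 µM, two cells recorded per concentration, 5 min exposure at each level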
EML4-ALK BaF3 cells = test: BaF3 stables cell viability (WST-1)
ALK = ALK (Homo sapiens (Human), UniProt Q9UM73); test: In vitro kinase activity assay (LANCE TR-FRET); assay type: biochemical;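 also: kinase reactions with ATP and a poly-GT peptide substrate, phosphorylated product read by time-resolved FRET, 11-point curve from 10^−11 to 10^−5 M, DMSO as negative control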
Sequence of ALK (Q9UM73 19-1620): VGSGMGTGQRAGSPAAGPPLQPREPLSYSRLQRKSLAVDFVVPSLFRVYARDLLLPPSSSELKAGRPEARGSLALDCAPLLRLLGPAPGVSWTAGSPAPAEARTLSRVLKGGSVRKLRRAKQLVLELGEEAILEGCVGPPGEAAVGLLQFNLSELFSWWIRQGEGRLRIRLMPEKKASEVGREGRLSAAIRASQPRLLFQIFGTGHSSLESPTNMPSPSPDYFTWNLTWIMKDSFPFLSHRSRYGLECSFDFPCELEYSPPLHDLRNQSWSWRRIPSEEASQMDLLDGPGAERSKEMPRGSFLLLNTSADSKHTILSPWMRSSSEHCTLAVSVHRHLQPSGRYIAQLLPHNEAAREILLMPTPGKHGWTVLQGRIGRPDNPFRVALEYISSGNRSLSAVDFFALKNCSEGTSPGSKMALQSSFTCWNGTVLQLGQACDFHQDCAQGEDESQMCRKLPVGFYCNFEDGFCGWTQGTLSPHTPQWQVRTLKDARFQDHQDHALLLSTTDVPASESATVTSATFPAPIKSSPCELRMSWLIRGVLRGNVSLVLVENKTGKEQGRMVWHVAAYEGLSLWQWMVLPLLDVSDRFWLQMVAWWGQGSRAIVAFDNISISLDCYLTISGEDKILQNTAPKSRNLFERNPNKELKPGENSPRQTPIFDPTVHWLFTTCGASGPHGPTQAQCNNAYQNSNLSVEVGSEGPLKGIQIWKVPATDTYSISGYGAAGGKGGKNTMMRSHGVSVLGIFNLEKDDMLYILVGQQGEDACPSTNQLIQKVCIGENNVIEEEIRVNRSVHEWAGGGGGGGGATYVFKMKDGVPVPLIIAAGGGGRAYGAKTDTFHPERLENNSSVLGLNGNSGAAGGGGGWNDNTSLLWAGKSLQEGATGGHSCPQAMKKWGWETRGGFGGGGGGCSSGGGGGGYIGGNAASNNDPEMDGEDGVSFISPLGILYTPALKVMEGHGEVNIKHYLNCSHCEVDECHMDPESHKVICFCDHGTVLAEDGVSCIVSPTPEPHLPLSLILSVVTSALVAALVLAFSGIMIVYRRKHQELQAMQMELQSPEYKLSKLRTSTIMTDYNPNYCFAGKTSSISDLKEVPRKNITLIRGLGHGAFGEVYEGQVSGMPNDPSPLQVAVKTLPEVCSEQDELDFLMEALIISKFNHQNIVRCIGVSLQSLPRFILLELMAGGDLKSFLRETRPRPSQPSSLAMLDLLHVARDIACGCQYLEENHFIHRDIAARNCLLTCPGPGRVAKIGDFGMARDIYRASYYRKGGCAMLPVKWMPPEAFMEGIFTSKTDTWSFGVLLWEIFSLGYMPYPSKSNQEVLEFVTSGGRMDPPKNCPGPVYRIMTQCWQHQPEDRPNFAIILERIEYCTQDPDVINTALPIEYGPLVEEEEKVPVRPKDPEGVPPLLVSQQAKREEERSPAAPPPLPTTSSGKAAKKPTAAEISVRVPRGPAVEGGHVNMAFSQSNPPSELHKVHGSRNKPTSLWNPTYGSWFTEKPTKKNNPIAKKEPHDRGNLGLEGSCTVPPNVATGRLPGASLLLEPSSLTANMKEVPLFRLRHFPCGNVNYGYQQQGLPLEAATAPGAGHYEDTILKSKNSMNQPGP

[3] = system: EML4-ALK C1156Y BaF3 cells; test: BaF3 stables cell viability (WST-1); details: read-out: BaF3 Stables IC50 nM C1156Y; EML4-ALK construct
[4] = system: EML4-ALK R1275Q BaF3 cells; test: BaF3 stables cell viability (WST-1); details: read-out: BaF3 Stables IC50 nM R1275Q; EML4-ALK construct
TrkA = TrkA (Homo sapiens (Human), UniProt P04629); test: In vitro kinase activity assay (LANCE TR-FRET); assay type: biochemical;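 also: kinase reaction with poly-GT peptide substrate and ATP, phosphorylated product quantified by time-resolved FRET, eleven-point dose curves from 10^−11 to 10^−5 M in triplicate, DMSO as negative control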
Sequence of TrkA (P04629 33-796): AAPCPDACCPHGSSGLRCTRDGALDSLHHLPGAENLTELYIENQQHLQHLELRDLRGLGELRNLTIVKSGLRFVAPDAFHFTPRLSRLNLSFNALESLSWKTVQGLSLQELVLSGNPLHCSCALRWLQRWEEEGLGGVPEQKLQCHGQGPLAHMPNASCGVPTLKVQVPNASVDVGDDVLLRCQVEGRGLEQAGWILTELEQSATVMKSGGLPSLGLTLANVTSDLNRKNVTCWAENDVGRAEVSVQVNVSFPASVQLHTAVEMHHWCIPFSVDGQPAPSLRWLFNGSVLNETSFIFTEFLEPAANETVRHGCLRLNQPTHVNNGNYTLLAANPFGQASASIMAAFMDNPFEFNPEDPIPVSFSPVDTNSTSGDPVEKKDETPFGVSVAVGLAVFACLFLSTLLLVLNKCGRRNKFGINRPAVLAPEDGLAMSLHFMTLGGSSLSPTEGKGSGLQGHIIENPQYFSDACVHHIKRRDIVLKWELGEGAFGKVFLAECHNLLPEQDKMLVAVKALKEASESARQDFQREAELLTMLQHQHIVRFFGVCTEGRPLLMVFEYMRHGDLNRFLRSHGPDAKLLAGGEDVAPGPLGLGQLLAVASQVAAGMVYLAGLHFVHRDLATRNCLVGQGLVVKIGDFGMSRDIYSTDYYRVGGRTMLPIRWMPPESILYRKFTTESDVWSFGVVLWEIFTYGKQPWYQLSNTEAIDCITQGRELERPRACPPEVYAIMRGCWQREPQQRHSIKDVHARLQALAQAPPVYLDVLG

[5] = microsomes, 0.5 μM, pH 7.4
IGF1R = IGF1R (Homo sapiens (Human), UniProt P08069); test: In vitro kinase activity assay (LANCE TR-FRET); assay type: biochemical
INSR = INSR (Homo sapiens (Human), UniProt P06213); test: In vitro kinase activity assay (LANCE TR-FRET); assay type: biochemical
in vitro [6] = details: human, microsomes
K299 lymphoma cells = test: Cellular assay, 3 day cell viability (WST-1); assay type: cell-based; details: 72 h, 3 days
[7] = Metabolic stability, Phase I microsome reactions; assay type: in vitro ADME, mouse; details: mouse, liver microsomes, pH 7.4, Phase I only, 1.0 mg/ml microsomes, read-out: Mouse LM-P1 Half-life
in vitro [8] = details: rat, microsomes
U937 lymphoma cells = test: Cellular assay, 3 day cell viability (WST-1); assay type: cell-based; details: Homo sapiens, U-937, 72 h, 3 days, WST-1
ALK (WT) = ALK (WT) (Homo sapiens (Human), UniProt Q9UM73); test: Cell free kinase assay (Carna Biosciences kinases); assay type: biochemical
ROS = ROS (Homo sapiens (Human), UniProt P08922); test: In vitro kinase activity assay (LANCE TR-FRET); assay type: biochemical; details: read-out: ROS (nM) IC50
RET = RET (Homo sapiens (Human), UniProt P07949); test: In vitro kinase activity assay (LANCE TR-FRET); assay type: biochemical; details: read-out: RET (nM) IC50
NB-1 neuroblastoma cells = test: Cellular assay, 3 day cell viability (WST-1); assay type: cell-based; details: 72 h, 3 days, WST-1, read-out: NB-1 IC50
[9] = Caco-2 cell permeation study; assay type: in vitro ADME; details: human;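 also: Caco-2 monolayers grown for 21–28 days with integrity confirmed by TEER, apical buffer HBSS with MES, basolateral buffer HBSS with HEPES, compound levels quantified by LC/MS/MS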
cMET = cMET (Homo sapiens (Human), UniProt P08581); test: In vitro kinase activity assay (LANCE TR-FRET); assay type: biochemical
SUDHL-1 lymphoma cells = test: Cellular assay, 3 day cell viability (WST-1); assay type: cell-based; details: Homo sapiens, SU-DHL-1, 72 h, 3 days, WST-1
TrkB = TrkB (Homo sapiens (Human), UniProt Q16620); test: In vitro kinase activity assay (LANCE TR-FRET); assay type: biochemical; details: read-out: GTx-TrKB IC50
TrkC = TrkC (Homo sapiens (Human), UniProt Q16288); test: In vitro kinase activity assay (LANCE TR-FRET); assay type: biochemical; details: read-out: GTx-TrKC IC50
[10] = Individual Data Points (% Inhibition)

Sequence of hERG potassium channel (Q12809 whole entry): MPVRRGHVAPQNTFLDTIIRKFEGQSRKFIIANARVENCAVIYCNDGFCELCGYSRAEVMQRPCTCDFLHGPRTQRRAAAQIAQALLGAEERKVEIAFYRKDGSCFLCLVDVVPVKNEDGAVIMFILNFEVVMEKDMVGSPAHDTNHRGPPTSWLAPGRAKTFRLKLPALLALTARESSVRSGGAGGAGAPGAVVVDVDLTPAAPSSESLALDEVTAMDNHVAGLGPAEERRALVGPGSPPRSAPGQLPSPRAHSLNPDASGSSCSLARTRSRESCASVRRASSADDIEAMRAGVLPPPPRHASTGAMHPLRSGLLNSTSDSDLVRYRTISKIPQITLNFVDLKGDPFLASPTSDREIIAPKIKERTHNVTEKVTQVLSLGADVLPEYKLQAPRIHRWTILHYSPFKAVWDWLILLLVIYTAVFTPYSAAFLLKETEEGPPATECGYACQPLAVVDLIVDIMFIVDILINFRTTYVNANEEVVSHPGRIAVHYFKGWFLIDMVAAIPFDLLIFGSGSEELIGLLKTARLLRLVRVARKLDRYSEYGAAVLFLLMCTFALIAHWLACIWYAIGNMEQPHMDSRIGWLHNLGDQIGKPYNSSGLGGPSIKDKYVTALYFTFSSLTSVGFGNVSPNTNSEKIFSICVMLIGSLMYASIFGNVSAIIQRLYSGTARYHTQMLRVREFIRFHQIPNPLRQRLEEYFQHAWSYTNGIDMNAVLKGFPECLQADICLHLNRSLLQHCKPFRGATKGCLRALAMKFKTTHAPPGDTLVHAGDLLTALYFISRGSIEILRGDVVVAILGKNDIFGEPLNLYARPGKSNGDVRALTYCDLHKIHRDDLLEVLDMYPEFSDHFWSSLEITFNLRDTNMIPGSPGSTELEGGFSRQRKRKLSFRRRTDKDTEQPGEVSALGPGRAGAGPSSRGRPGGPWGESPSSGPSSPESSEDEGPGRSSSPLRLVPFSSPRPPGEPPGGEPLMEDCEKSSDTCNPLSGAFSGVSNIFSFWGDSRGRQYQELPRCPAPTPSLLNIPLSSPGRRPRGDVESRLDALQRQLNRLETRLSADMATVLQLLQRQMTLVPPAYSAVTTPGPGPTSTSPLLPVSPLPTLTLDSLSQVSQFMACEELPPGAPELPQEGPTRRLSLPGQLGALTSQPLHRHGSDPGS
T1 sequence (Q12809 whole entry): as above

Compound: C[C@@H](Cc1c(F)c(F)cc(F)c1F)Nc1cc[nH]c(=O)c1-c1nc2cc3c(cc2[nH]1)CN(CCN1CCCC1)C3=O [Compound 3]
inhibition at 5 min, 0.3 µM (hERG potassium channel; [10]): 13.2%
inhibition at 5 min, 3 µM (hERG potassium channel; [10]): 49.1%
inhibition at 5 min, 10 µM (hERG potassium channel; [10]): 75.7%
inhibition at 5 min, 30 µM (hERG potassium channel; [10]): 87.2%
inhibition at 5 min, 0.3 µM (hERG potassium channel; Mean % hERG Inhibition): 12.2%
inhibition at 5 min, 3 µM (hERG potassium channel; Mean % hERG Inhibition): 49.4%
inhibition at 5 min, 10 µM (hERG potassium channel; Mean % hERG Inhibition): 73.3%
inhibition at 5 min, 30 µM (hERG potassium channel; Mean % hERG Inhibition): 84.4%
Individual Data Points (% Inhibition) ([1]; 0.3 µM): 11.2%
Individual Data Points (% Inhibition) ([1]; 3 µM): 49.7%
Individual Data Points (% Inhibition) ([1]; 10 µM): 70.8%
Individual Data Points (% Inhibition) ([1]; 30 µM): 81.7%
IC50 [2]: 3170 nM

Compound: C[C@@H](Cc1cc(F)cc(F)c1F)Nc1cc[nH]c(=O)c1-c1nc2cc3c(cc2[nH]1)CN(CCN(C)C)C3=O [Compound 31]
IC50 (IGF1R): 299 nM
IC50 (INSR; read-out: IRK IC50): 578 nM
IC50 (ALK; read-out: ALK IC50): 1 nM
microsomal CLint at 0.5 μM (in vitro [6]; pH 7.4, Human LM-P1 CL (ul/min/mg)): < 5.8 µL/min/mg
half-life at 0.5 μM (in vitro [6]; pH 7.4, Human LM-P1 Half-life (min)): > 120 min
IC50 (K299 lymphoma cells; read-out: K299 IC50): 154 nM
half-life at 0.5 μM [7]: 29 min
half-life at 0.5 μM (in vitro [8]; pH 7.4): 8.7 min
microsomal CLint at 0.5 μM (in vitro [8]; pH 7.4, Rat LM-P1 CL (ul/min/mg)): 79.9 µL/min/mg
IC50 (U937 lymphoma cells; read-out: U937 IC50): 2200 nM
IC50 (TrkA; read-out: TrKA IC50): 4 nM

Compound: C[C@@H](Cc1c(F)c(F)cc(F)c1F)Nc1cc[nH]c(=O)c1-c1nc2cc3c(cc2[nH]1)CN(CCN(C)C)C3=O (single isomer, unassigned) [Compound 1 R isomer]
IC50 (EML4-ALK BaF3 cells; Mus musculus, BaF3, read-out: BaF3 Stables IC50 nM EML4-ALK): 1060 nM
cell free activity (in words) (ALK (WT)): inactive

Compound: COc1cc([C@@H]2c3cc4c(cc3[C@H](O)[C@H]3COC(=O)[C@@H]23)OCO4)cc(OC)c1OC (racemic) [PPP, reference compound]
IC50 (INSR; read-out: GTx-IRK IC50): > 10000 nM
IC50 (ALK; read-out: ALK IC50): > 10000 nM
IC50 (ALK; read-out: GTx-ALK IC50): > 10000 nM
IC50 (K299 lymphoma cells; read-out: GTx-K299 IC50): 196 nM
IC50 (K299 lymphoma cells; read-out: K299 IC50): 196 nM
IC50 (U937 lymphoma cells; read-out: GTx-U937 IC50): 138 nM
IC50 (U937 lymphoma cells; read-out: U937 IC50): 138 nM

Compound: C[C@@H](Cc1c(F)c(F)cc(F)c1F)Nc1cc[nH]c(=O)c1-c1nc2cc3c(cc2[nH]1)C(=O)N(CCN(C)C)C3=O [Compound 2, (S)-6-(2-(Dimethylamino)ethyl)-2-(2-oxo-4-((1-(2,3,5,6-tetrafluorophenyl)propan-2-yl)amino)-1,2-dihydropyridin-3-yl)imidazo[4,5-f]isoindole-5,7(1H,6H)-dione]
IC50 (ROS): 0.436 nM
IC50 (ALK; read-out: ALK (nM) IC50): 14 nM
IC50 (ALK; read-out: ALK IC50): 14 nM
IC50 (RET): 25.8 nM
IC50 (NB-1 neuroblastoma cells): 666 nM
IC50 (K299 lymphoma cells; read-out: K299 IC50): 1920 nM
efflux ratio at 2 h, 10 μM ([9]; Caco-2, Caco-2): > 17.8
Papp A→B at 2 h, 10 μM ([9]; Caco-2, pH 6.5, 10 μM, apical pH 6.5, 2 h): < 0.2 ×10⁻⁶ cm/s
Papp B→A at 2 h, 10 μM ([9]; Caco-2, pH 7.4, 10 μM, basolateral pH 7.4, 2 h): 3.6 ×10⁻⁶ cm/s
IC50 (cMET): 14 nM
IC50 (SUDHL-1 lymphoma cells; read-out: SUDHL-1 IC50): 2740 nM
IC50 [2]: > 30000 nM
IC50 (U937 lymphoma cells; read-out: U937 IC50): > 10000 nM
IC50 (TrkA; read-out: TrKA IC50): 12 nM
IC50 (TrkA; read-out: TrkA (nM) IC50): 12.2 nM

The next lines start with the values.

IC50 (EML4-ALK BaF3 cells; read-out: BaF3 Stables IC50 nM EML4-ALK, EML4-ALK parent construct): 143 ± 6 nM
IC50 (ALK; read-out: ALK (nM) IC50): 9.81 nM
IC50 (ALK; read-out: GTx-ALK IC50): 10 nM
IC50 [3]: 283 ± 43 nM
IC50 [4]: 288 ± 20 nM
IC50 (TrkA; read-out: TrkA (nM) IC50): 5 nM
Rat LM-P1 Half-life [5]: >120 min
Compound: (S)-6-(1-Methylpiperidin-4-yl)-2-(2-oxo-4-(1-(2,3,5,6-tetrafluorophenyl)propan-2-ylamino)-1,2-dihydropyridin-3-yl)-6,7-dihydroimidazo[4,5-f]isoindol-5(3H)-one [Compound 4]

IC50 (ALK; read-out: GTx-ALK IC50): 37 nM
IC50 (TrkB): 4 nM
IC50 (TrkC): 1 nM
IC50 (K299 lymphoma cells; read-out: GTx-K299 IC50): 798 nM
IC50 (SUDHL-1 lymphoma cells; read-out: GTx-SUDHL-1 IC50): 829 nM
IC50 (U937 lymphoma cells; read-out: GTx-U937 IC50): > 3000 nM
IC50 (TrkA; read-out: GTx-TrKA IC50): 4 nM
Compound: Cc1ccc(F)cc1CC(C)Nc1cc[nH]c(=O)c1-c1nc2cc3c(cc2[nH]1)CN(C)C3=O (centres unmarked) [Compound 44, 2-(4-(1-(5-Fluoro-2-methylphenyl)propan-2-ylamino)-2-oxo-1,2-dihydropyridin-3-yl)-6-methyl-6,7-dihydroimidazo[4,5-f]isoindol-5(1H)-one]

Source: patent US8822500B2, “Tyrosine kinase inhibitors” (Chembridge Corporation, priority 2008, dated 2014)
